Reference: ChEMBL document CHEMBL6092220 (J Med Chem, 2024)

Assays:
[1] = Chemical stability of the compound in PBS buffer assessed as half life at pH 4; type: physicochemical
[2] = Chemical stability of the compound in PBS buffer assessed as half life at pH 7.4; type: physicochemical
[3] = Chemical stability of the compound in PBS buffer assessed as half life at pH 8; type: physicochemical
[4] = target: T1, Protein cereblon/Signal transducer and activator of transcription 3 (Homo sapiens, UniProt P40763+Q96SW2); assay: PROTAC activity at his-SUMO-tagged STAT3 (127 to 688 residues)/CRBN in human HeLa cells assessed as induction of STAT3 degradation incubated for 24 hrs by TECAN SPARK microplate reader analysis; type: cell-based
[5] = target: T1, Protein cereblon/Signal transducer and activator of transcription 3; assay: PROTAC activity at his-SUMO-tagged STAT3 (127 to 688 residues)/CRBN in human HeLa cells assessed as induction of STAT3 degradation incubated for 24 hrs by TECAN SPARK microplate reader analysis relative to control; type: cell-based
[6] = Antiproliferative activity against human MOLM16 cells assessed as cell growth inhibition incubated for 4 days by celltiter-glo assay; type: functional, cell-based, MOLM-16; conditions: MOLM16, 96 h
SU-DHL-1 = assay: Antiproliferative activity against human SU-DHL-1 cells assessed as cell growth inhibition incubated for 4 days by celltiter-glo assay; type: functional, cell-based; conditions: SU-DHL-1, 96 h
[7] = Antiproliferative activity against human SUPM2 cells assessed as cell growth inhibition incubated for 4 days by celltiter-glo assay; type: functional, cell-based; conditions: SUP-M2, 96 h
[8] = target: Protein cereblon/Signal transducer and activator of transcription 4 (Homo sapiens, UniProt Q96SW2+Q14765); assay: PROTAC activity at STAT4/CRBN in human SU-DHL-1 cells assessed as reduction in STAT4 level incubated for 20 hrs by Western blot analysis; type: cell-based; conditions: dose <= 40.0 µM
[9] = target: Signal transducer and activator of transcription 1-alpha/beta (Homo sapiens, UniProt P42224); assay: Binding affinity to STAT1 (unknown origin) by FP assay
[10] = target: Signal transducer and activator of transcription 4 (Homo sapiens, UniProt Q14765); assay: Binding affinity to STAT4 (unknown origin) by FP assay
[11] = Binding affinity to STAT5 (unknown origin) by FP assay; design: species or system Homo sapiens
[12] = target: Signal transducer and activator of transcription 6 (Homo sapiens, UniProt P42226); assay: Binding affinity to STAT6 (unknown origin) by FP assay
[13] = target: T2, Signal transducer and activator of transcription 3 (Homo sapiens, UniProt P40763); assay: Binding affinity to STAT3 (unknown origin) assessed as maximum inhibition by FP assay relative to control
[14] = target: Signal transducer and activator of transcription 1-alpha/beta (Homo sapiens) (UniProt P42224); assay: Binding affinity to STAT1 (unknown origin) assessed as maximum inhibition by FP assay relative to control
[15] = target: Signal transducer and activator of transcription 4 (Homo sapiens) (UniProt Q14765); assay: Binding affinity to STAT4 (unknown origin) assessed as maximum inhibition by FP assay relative to control
[16] = target: Signal transducer and activator of transcription 6 (Homo sapiens) (UniProt P42226); assay: Binding affinity to STAT6 (unknown origin) assessed as maximum inhibition by FP assay relative to control
[17] = target: T3, Protein cereblon/Signal transducer and activator of transcription 3 (Mus musculus) (UniProt P42227+Q8C7D2); assay: In-vivo PROTAC activity at STAT3/CRBN in female CB17 SCID mouse assessed as reduction STAT3 level liver at 10 mg/kg, iv measured at 24 hrs by Western blot analysis; type: functional, organism-based; design: scale not given: the % may be the effect or the level left
[18] = target: T3, Protein cereblon/Signal transducer and activator of transcription 3 (Mus musculus); assay: In-vivo PROTAC activity at STAT3/CRBN in female CB17 SCID mouse assessed as reduction STAT3 level spleen at 10 mg/kg, iv measured at 24 hrs by Western blot analysis; type: functional, organism-based; design: scale not given: the % may be the effect or the level left
[19] = target: T3, Protein cereblon/Signal transducer and activator of transcription 3 (Mus musculus); assay: In-vivo PROTAC activity at STAT3/CRBN in female CB17 SCID mouse assessed as reduction STAT3 level liver at 10 mg/kg, iv measured at 48 hrs by Western blot analysis; type: functional, organism-based; design: scale not given: the % may be the effect or the level left
[20] = target: T3, Protein cereblon/Signal transducer and activator of transcription 3 (Mus musculus); assay: In-vivo PROTAC activity at STAT3/CRBN in female CB17 SCID mouse assessed as reduction STAT3 level spleen at 10 mg/kg, iv measured at 48 hrs by Western blot analysis; type: functional, organism-based; design: scale not given: the % may be the effect or the level left
[21] = target: T3, Protein cereblon/Signal transducer and activator of transcription 3 (Mus musculus); assay: In-vivo PROTAC activity at STAT3/CRBN in female CB17 SCID mouse assessed as reduction STAT3 level liver at 10 mg/kg, iv measured at 72 hrs by Western blot analysis; type: functional, organism-based; design: scale not given: the % may be the effect or the level left
[22] = target: T3, Protein cereblon/Signal transducer and activator of transcription 3 (Mus musculus); assay: In-vivo PROTAC activity at STAT3/CRBN in female CB17 SCID mouse assessed as reduction STAT3 level spleen at 10 mg/kg, iv measured at 72 hrs by Western blot analysis; type: functional, organism-based; design: scale not given: the % may be the effect or the level left
[23] = Half life in ICR mouse at 5 mg/kg, iv; type: ADME, organism-based; conditions: in vivo
[24] = Cmax in ICR mouse at 5 mg/kg, iv; type: ADME, organism-based; conditions: in vivo
[25] = AUC (0 to t) in ICR mouse at 5 mg/kg, iv; type: ADME, organism-based; conditions: in vivo
[26] = Apparent volume of distribution in ICR mouse at 5 mg/kg, iv; type: ADME, organism-based; conditions: in vivo, read-out: Vz
[27] = Clearance in ICR mouse at 5 mg/kg, iv; type: ADME, organism-based; conditions: in vivo
[28] = Clearance in ICR mouse assessed as hepatic blood flow at 5 mg/kg, iv; type: ADME, organism-based; conditions: in vivo
[29] = Half life in Sprague-Dawley rat at 5 mg/kg, iv; type: ADME, organism-based; conditions: in vivo
[30] = Cmax in Sprague-Dawley rat at 5 mg/kg, iv; type: ADME, organism-based; conditions: in vivo
[31] = AUC (0 to t) in Sprague-Dawley rat at 5 mg/kg, iv; type: ADME, organism-based; conditions: in vivo
[32] = Apparent volume of distribution in Sprague-Dawley rat at 5 mg/kg, iv; type: ADME, organism-based; conditions: in vivo, read-out: Vz
[33] = Clearance in Sprague-Dawley rat at 5 mg/kg, iv; type: ADME, organism-based; conditions: in vivo
[34] = Clearance in Sprague-Dawley rat assessed as hepatic blood flow at 5 mg/kg, iv; type: ADME, organism-based; conditions: in vivo
[35] = Half life in Beagle dog at 1 mg/kg, iv; type: ADME, organism-based, Canis lupus familiaris; conditions: in vivo
[36] = Cmax in Beagle dog at 1 mg/kg, iv; type: ADME, organism-based, Canis lupus familiaris; conditions: in vivo
[37] = AUC (0 to t) in Beagle dog at 1 mg/kg, iv; type: ADME, organism-based, Canis lupus familiaris; conditions: in vivo
[38] = Apparent volume of distribution in Beagle dog at 1 mg/kg, iv; type: ADME, organism-based, Canis lupus familiaris; conditions: in vivo, read-out: Vz
[39] = Clearance in Beagle dog at 1 mg/kg, iv; type: ADME, organism-based, Canis lupus familiaris; conditions: in vivo
[40] = Clearance in Beagle dog assessed as hepatic blood flow at 1 mg/kg, iv; type: ADME, organism-based, Canis lupus familiaris; conditions: in vivo
[41] = Plasma protein binding in rat assessed as unbound fraction at 10 uM; type: ADME, cell-free
[42] = Plasma protein binding in dog assessed as unbound fraction at 10 uM; type: ADME, cell-free, Canis lupus familiaris
[43] = Plasma protein binding in human assessed as unbound fraction at 10 uM; type: ADME, cell-free
[44] = Plasma protein binding in mouse at 10 uM; type: ADME, cell-free
[45] = Plasma protein binding in rat at 10 uM; type: ADME, cell-free
[46] = Plasma protein binding in dog at 10 uM; type: ADME, cell-free, Canis lupus familiaris
[47] = Plasma protein binding in human at 10 uM; type: ADME, cell-free
[48] = target: T2, Signal transducer and activator of transcription 3; assay: Binding affinity to STAT3 (unknown origin) assessed as inhibition constant
[49] = Chemical stability of the compound in PBS buffer at pH 4; type: physicochemical
[50] = Chemical stability of the compound in PBS buffer at pH 7.4; type: physicochemical
[51] = Chemical stability of the compound in PBS buffer at pH 8; type: physicochemical

CN1CC[C@H]2CC[C@@H](C(=O)N[C@@H](CCC(N)=O)C(=O)NC(c3ccccc3)c3ccccc3)N2C(=O)[C@@H](NC(=O)c2cc3cc(C(F)(F)P(=O)(O)O)ccc3[nH]2)C1
t1/2 [1]: 4 h | t1/2 [2]: 2 h | t1/2 [3]: 2 h

NC(=O)CC[C@H](NC(=O)[C@@H]1CC[C@@H]2CCN(C(=O)CCCCCC#Cc3cccc4c3CN(C3CCC(=O)NC3=O)C4=O)C[C@H](NC(=O)c3cc4cc(C(F)(F)P(=O)(O)O)ccc4[nH]3)C(=O)N21)C(=O)NC(c1ccccc1)c1ccccc1 (some centres not stated)
DC50 [4]: 400 nM | Emax [5]: 86% | IC50 [6]: 30 nM | IC50 (SU-DHL-1): 330 nM | IC50 [7]: 490 nM | Activity [8]: Dose-dependent-effect | IC50 [9]: 1300 nM | IC50 [10]: 1100 nM | IC50 [11]: > 10 nM | IC50 [12]: > 10000 nM | Imax [13]: 100% | Imax [14]: 92% | Imax [15]: 93% | Imax [16]: 0%

CC(=O)N1CC[C@H]2CC[C@@H](C(=O)N[C@@H](CCC(N)=O)C(=O)N[C@@H](Cc3ccc(F)c(F)c3)C(=O)N3CCC(CCC#Cc4cccc5c4CN(C4CCC(=O)NC4=O)C5=O)CC3)N2C(=O)[C@@H](NC(=O)c2cc3cc(C(F)(F)P(=O)(O)O)ccc3s2)C1 (some centres not stated)
DC50 [4]: 1600 nM | Emax [5]: 68% | Activity [17]: > 90% | Activity [18]: > 90% | Activity [19]: > 90% | Activity [20]: > 90% | Activity [21]: > 90% | Activity [22]: > 90% | IC50 [6]: 75 nM | IC50 (SU-DHL-1): 3580 nM | IC50 [7]: 1460 nM | half-life [23]: 16.9 h | Cmax [24]: 121000 ng/mL | AUC(0-t) [25]: 739000 ng·h/mL | Vd [26]: 0.11 L/kg | clearance [27]: 0.073 mL/min/kg | QH [28]: 0.1% | half-life [29]: 1.3 h | Cmax [30]: 15900 ng/mL | AUC(0-t) [31]: 21100 ng·h/mL | Vd [32]: 0.44 L/kg | clearance [33]: 4 mL/min/kg | QH [34]: 7.3% | half-life [35]: 2.9 h | Cmax [36]: 8030 ng/mL | AUC(0-t) [37]: 15000 ng·h/mL | Vd [38]: 0.24 L/kg | clearance [39]: 1 mL/min/kg | QH [40]: 3.1% | Fu [41]: 3.8% | Fu [42]: 3.3% | Fu [43]: 0.6% | PPB [44]: 99.1% | PPB [45]: 96.2% | PPB [46]: 96.7% | PPB [47]: 99.4%

CN1CC[C@H]2CC[C@@H](C(=O)N[C@@H](CCC(N)=O)C(=O)NC(c3ccccc3)c3ccccc3)N2C(=O)[C@@H](NC(=O)c2cc3cc(C(F)(F)P(=O)(O)O)ccc3s2)C1
Ki [48]: 6 nM | Stability [49]: Stable | Stability [50]: Stable | Stability [51]: Stable
